Our source for the Ki and Activity values is ChEMBL document CHEMBL1149477, “Monocyclic thiophenes as protein tyrosine phosphatase 1B inhibitors: capturing interactions with Asp48” (Bioorg Med Chem Lett, 2006).

Experiment [1] deals with T1, Tyrosine-protein phosphatase non-receptor type 1 (Homo sapiens, UniProt P18031).
T1 sequence (P18031 whole entry): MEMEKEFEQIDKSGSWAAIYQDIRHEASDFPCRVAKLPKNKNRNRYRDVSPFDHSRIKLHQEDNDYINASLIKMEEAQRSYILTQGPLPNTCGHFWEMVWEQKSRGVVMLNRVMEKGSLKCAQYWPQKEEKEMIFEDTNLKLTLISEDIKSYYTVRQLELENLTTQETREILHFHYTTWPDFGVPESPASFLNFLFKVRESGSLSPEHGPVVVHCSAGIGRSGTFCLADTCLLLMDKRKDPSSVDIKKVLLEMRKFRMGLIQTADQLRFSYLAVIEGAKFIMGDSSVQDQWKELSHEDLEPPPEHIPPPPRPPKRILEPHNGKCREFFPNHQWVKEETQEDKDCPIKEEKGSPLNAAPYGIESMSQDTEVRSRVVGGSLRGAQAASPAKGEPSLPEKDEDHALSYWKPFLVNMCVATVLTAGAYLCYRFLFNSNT
Put plainly: (§1) Inhibition of PTP1B.

Experiment [2] addresses T2, Receptor-type tyrosine-protein phosphatase C (Homo sapiens, UniProt P08575).
T2 sequence (P08575 whole entry): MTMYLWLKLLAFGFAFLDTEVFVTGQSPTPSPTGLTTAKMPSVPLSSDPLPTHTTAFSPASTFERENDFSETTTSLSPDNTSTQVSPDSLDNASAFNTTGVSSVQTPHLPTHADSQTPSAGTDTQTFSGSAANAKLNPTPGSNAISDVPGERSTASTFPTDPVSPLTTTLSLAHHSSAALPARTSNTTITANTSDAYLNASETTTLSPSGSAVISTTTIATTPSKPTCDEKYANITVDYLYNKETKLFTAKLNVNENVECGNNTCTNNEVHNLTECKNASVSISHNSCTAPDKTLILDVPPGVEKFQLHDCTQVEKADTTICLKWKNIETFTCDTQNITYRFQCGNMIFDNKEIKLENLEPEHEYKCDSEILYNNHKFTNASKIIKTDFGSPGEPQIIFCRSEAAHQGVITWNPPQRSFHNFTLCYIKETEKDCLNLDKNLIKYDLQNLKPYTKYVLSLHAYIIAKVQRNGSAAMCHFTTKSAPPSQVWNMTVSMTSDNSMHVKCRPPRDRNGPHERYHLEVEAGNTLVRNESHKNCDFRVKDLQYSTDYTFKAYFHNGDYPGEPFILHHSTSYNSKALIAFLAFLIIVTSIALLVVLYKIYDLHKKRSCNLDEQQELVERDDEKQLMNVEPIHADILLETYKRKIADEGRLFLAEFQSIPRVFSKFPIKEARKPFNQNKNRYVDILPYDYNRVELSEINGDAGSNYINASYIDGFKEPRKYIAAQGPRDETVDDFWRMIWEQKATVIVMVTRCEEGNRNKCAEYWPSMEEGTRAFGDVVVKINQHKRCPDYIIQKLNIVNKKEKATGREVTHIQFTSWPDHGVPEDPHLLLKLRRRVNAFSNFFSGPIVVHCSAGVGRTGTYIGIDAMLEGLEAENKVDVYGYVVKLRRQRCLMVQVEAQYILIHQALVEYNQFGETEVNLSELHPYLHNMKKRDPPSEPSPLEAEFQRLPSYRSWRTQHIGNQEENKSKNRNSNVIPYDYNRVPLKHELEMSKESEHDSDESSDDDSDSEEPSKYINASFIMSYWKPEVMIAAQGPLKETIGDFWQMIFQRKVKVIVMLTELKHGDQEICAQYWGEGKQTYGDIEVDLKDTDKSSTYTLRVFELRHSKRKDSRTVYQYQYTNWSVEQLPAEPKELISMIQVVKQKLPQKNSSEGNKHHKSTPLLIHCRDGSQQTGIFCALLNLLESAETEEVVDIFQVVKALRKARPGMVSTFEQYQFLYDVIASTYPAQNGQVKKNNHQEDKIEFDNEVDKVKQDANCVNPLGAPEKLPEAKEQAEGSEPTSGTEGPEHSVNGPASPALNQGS
Kind of experiment: Inhibition of CD45.

Experiment [3] has as its target Receptor-type tyrosine-protein phosphatase F (Homo sapiens, UniProt P10586). Put plainly: Inhibition of LAR.
Experiment [4] has as its target T3, Tyrosine-protein phosphatase non-receptor type 1 (Homo sapiens) (UniProt P18031).
T3 sequence (whole entry): T1 sequence (P18031 whole entry)
The description is as §1.

Calls of active or inactive are those of the source. No cut-off for these calls is given here.

What is called Ki is a dissociation constant, usually derived from enzyme kinetics or from competition with a known ligand. A lower Ki goes with higher affinity.

Chain of Receptor-type tyrosine-protein phosphatase F (P10586 whole entry): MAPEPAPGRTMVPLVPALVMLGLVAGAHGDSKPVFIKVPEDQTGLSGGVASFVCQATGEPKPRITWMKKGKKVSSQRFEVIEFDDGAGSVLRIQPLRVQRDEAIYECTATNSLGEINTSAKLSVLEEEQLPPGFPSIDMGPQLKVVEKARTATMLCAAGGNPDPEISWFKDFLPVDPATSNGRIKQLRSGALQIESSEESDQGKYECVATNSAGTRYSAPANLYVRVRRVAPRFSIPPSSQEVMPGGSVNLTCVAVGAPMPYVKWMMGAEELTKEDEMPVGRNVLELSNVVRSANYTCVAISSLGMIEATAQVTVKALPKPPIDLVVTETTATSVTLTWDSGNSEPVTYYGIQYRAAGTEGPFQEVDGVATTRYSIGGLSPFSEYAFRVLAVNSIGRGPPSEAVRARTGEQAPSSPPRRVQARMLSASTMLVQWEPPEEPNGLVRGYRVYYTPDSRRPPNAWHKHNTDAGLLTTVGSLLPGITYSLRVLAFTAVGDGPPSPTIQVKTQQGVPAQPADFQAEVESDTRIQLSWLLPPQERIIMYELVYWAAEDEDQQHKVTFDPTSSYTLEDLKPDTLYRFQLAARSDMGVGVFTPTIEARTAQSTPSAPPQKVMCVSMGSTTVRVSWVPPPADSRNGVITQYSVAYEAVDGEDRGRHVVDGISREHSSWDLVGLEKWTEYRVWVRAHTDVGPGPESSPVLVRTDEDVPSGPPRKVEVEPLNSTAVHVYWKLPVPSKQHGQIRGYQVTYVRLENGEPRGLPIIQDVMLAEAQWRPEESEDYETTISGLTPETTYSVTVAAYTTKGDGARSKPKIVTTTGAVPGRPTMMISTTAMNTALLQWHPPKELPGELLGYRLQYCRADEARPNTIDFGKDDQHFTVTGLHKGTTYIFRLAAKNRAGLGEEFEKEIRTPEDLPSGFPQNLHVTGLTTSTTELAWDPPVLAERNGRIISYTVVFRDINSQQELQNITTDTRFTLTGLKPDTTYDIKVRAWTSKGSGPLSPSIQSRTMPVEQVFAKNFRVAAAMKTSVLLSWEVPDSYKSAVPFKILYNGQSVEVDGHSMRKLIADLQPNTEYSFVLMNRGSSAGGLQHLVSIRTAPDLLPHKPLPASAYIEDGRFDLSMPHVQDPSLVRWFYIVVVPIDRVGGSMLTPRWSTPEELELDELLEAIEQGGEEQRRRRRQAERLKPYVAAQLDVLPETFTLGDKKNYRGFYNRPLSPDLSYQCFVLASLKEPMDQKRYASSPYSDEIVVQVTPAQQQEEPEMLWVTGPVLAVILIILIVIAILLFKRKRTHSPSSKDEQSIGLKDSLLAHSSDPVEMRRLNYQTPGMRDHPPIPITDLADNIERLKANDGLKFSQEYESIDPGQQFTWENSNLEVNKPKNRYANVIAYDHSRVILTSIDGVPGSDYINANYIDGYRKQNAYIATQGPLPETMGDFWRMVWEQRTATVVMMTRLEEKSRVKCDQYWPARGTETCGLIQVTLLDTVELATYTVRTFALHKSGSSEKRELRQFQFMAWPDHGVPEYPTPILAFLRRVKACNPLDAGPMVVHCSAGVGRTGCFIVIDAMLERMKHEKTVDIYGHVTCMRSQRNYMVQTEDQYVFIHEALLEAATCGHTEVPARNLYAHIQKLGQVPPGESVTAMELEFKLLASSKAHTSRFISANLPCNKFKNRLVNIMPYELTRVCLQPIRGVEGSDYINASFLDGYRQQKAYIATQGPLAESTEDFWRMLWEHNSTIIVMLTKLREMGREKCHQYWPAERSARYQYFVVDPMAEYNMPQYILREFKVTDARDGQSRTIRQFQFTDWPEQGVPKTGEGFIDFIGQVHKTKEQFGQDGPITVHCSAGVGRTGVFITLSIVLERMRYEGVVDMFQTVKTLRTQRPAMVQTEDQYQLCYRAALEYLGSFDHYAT

The compound `O=C(O)COc1c(C(=O)O)sc(-c2ccc3ccccc3c2)c1Br` gave a Ki in experiment [1] of 3.3 µM.

For the compound `CC(C)NC(=O)Nc1ccc(-c2sc(C(=O)O)c(OCC(=O)O)c2Br)cc1`, the affinity in experiment [1] corresponds to a Ki of 0.36 µM.

Consider `O=C(O)COc1c(C(=O)O)sc(-c2ccc(NS(=O)(=O)c3ccc(C(F)(F)F)cc3)cc2)c1Br`, for which the affinity in experiment [1] corresponds to a Ki of 0.2 µM.

Turning to `CN(C)c1ccc(-c2sc(C(=O)O)c(OCC(=O)O)c2Br)cc1`, the Ki in experiment [2] was 64 µM; in experiment [3], over 1000 µM.

As to `O=C(O)COc1c(C(=O)O)sc(-c2ccccc2)c1-c1ccccc1`, in experiment [4], the result was inactive.

`O=C(O)COc1ccsc1C(=O)O` yielded a Ki in experiment [1] of over 1000 µM.

In turn, `O=C(O)COc1c(C(=O)O)sc(-c2ccc(NC(=O)c3ccccc3)cc2)c1Br` yielded a Ki in experiment [1] of 0.6 µM.

Consider `CC1(C)CC(Nc2ccc(-c3sc(C(=O)O)c(OCC(=O)O)c3Br)cc2)CC(C)(C)C1`, for which the affinity in experiment [1] corresponds to a Ki of 0.25 µM.

On to `O=C(O)COc1c(C(=O)O)sc(-c2ccccc2)c1Br`, for which the Ki in experiment [2] is 26 µM; in experiment [3], over 1000 µM.

As for `COC(=O)Nc1ccc(-c2sc(C(=O)O)c(OCC(=O)O)c2Br)cc1`, the affinity in experiment [1] corresponds to a Ki of 1 µM.

In turn, `O=C(O)COc1c(C(=O)O)sc(-c2ccc3cc[nH]c3c2)c1Br` showed a Ki in experiment [1] of 0.57 µM.

`COc1ccc(-c2sc(C(=O)O)c(OCC(=O)O)c2Br)cc1`: the affinity in experiment [1] corresponds to a Ki of 3 µM.

On to `CN(c1ccc(-c2sc(C(=O)O)c(OCC(=O)O)c2Br)cc1)S(=O)(=O)c1ccc(C(F)(F)F)cc1`, for which the Ki in experiment [1] is 1.2 µM.

`CS(=O)(=O)Nc1ccc(-c2sc(C(=O)O)c(OCC(=O)O)c2Br)cc1`: in experiment [1], the Ki was found to be 0.74 µM.

Consider `O=C(O)COc1c(C(=O)O)sc(-c2cccc(O)c2)c1Br`, for which the Ki in experiment [1] was determined as 1 µM.

In experiment [1], `O=C(O)COc1c(C(=O)O)sc(-c2cccnc2)c1Br` had a Ki of 4 µM.

In turn, `O=C(O)COc1c(C(=O)O)sc(-c2ccc3ccoc3c2)c1Br` registered a Ki in experiment [1] of 5 µM.

In the case of `O=C(O)COc1c(-c2ccccc2)csc1C(=O)O`, the Ki in experiment [1] was over 1000 µM.

The compound `Nc1ccc(-c2sc(C(=O)O)c(OCC(=O)O)c2Br)cc1` returned a Ki in experiment [1] of 1.6 µM.

In the case of `O=C(O)COc1c(C(=O)O)sc(-c2ccc(NC(=O)c3ccco3)cc2)c1Br`, in experiment [1], the Ki was 0.62 µM.

As to `O=C(O)COc1c(C(=O)O)sc(-c2ccc(NC(=O)CC(=O)O)cc2)c1Br`, the Ki in experiment [2] is 33 µM; in experiment [3] it was over 1000 µM.

`Cc1csc(C(=O)O)c1OCC(=O)O` came in with a Ki in experiment [1] of over 1000 µM.

`CC(=O)Nc1ccc(-c2sc(C(=O)O)c(OCC(=O)O)c2Br)cc1` registered a Ki in experiment [1] of 0.5 µM.

Regarding `O=C(O)COc1c(C(=O)O)sc(-c2ccc(NC(=O)c3cccnc3)cc2)c1Br`, the Ki in experiment [2] was 55 µM; in experiment [3] it was 320 µM.

In turn, `O=C(O)COc1c(C(=O)O)sc(Br)c1Br` gave a Ki in experiment [1] of 18 µM.

Compound `O=C(O)COc1c(C(=O)O)sc(-c2ccsc2)c1Br` came in with a Ki in experiment [1] of 1.4 µM.

As to `O=C(O)COc1c(C(=O)O)sc(-c2ccc(C(=O)Nc3ccccc3)cc2)c1Br`, the affinity in experiment [1] corresponds to a Ki of 2.5 µM.
